# In patent publication EP0153171A2, “New 2-hydroxyethyl-trimethylammonium salt of 1-ethyl-3-carboxy-4-oxo-6,7-methylenedioxy-1,4-dihydroquinoline, process for the preparation thereof and pharmaceutical composition containing it” (CHINOIN Gyogyszer és Vegyészeti Termékek Gyára RT., priority 1984, dated 1985):
# Values joined by “and” are separate entries in the source; they are usually repeats but may differ in a detail not shown here. Equal entries are not always repeated. Structures can show the parent of a compound that is named as a salt.
# Key:
# [1] = in vivo resorption examination in mice: serum concentration determined microbiologically from inhibition zones; design: species or system Male CFLP mice; conditions: for concentration at 0.5 h: 0.5 hour after treatment, as oxolinic acid; for concentration at 0.5 h / concentration at 1 h / concentration at 2 h / concentration at 3 h / concentration at 4 h: read-out: Plasma concentrations from the calibration curve; for concentration at 1 h: 1 hour after treatment; for concentration at 2 h: 2 hours after treatment; for concentration at 3 h: 3 hours after treatment; for concentration at 4 h: 4 hours after treatment; for Diameters of the inhibition zones: parallels a, b, c; for resorption: in vivo, comparison in words
# Description: Male CFLP mice with 25 g of an average body weight were used for these experiments. After starving for 12 hours, the animals were given oxolinic acid or choline oxolinate, respectively in a volume of 2 ml/100 g of body weight as an aqueous suspension containing 1 % of methylcellulose. The doses administered were 50 mg/kg of body weight of oxolinic acid or 70 mg/kg of body weight of choline oxolinate, respectively. )These doses are equimolar as calculated for oxolinic acid.) At 0.5, 1, 2, 3 or 4 hours, respectively after treatment the animals were killed, their blood were centrifuged and the serum were used for the microbiological determination of the concentration.
# (§1) The examinations were carried out in three parallels. 50/ul of the serum were applied to an agar gel plate containing Proteus Mirabilis in a concentration of 10^7 germs/ml. Simultaneously, a calibration curve was taken up with 50 ul each of suspensions containing oxolinic acid in a concentration of 1, 2, 4, 5, 10, 50 and 100 ug/ml, respectively. The serum concentrations were calculated from the average of diameters of the inhibition zones by using the calibration curve.
# (§2) The calibration values are shown in Table I and in Figue 3, respectively. The results of determinations are summarized in Tables II and III and in Figure 4, respectively.
# Proteus Mirabilis = test: calibrating series on agar gel plate: inhibition zone against concentration; type: cell-based; conditions: 50 ul applied, 2 parallels
# Description: as §1, with “The examinations were carried out in three parallels.” left out
# as §2
# [2] = solubility of the substance in water and solvents
# [3] = mouse, serum, 50 mg/kg oxolinic acid or 70 mg/kg choline oxolinate
# [4] = serum sampled at 1.0 hour, 50 mg/kg oxolinic acid or 70 mg/kg choline oxolinate
# [5] = serum sampled at 2.0 hour, 50 mg/kg oxolinic acid or 70 mg/kg choline oxolinate
# [6] = serum sampled at 3.0 hour, 50 mg/kg oxolinic acid or 70 mg/kg choline oxolinate
# [7] = serum sampled at 4.0 hour, 50 mg/kg oxolinic acid or 70 mg/kg choline oxolinate
SMILES,"concentration at 0.5 h [1, 3] [ng/mL]","concentration at 1 h [1, 3] [ng/mL]","concentration at 2 h [1, 3] [ng/mL]","concentration at 3 h [1, 3] [ng/mL]","concentration at 4 h [1, 3] [ng/mL]","Diameters of the inhibition zones [1, 4]","Diameters of the inhibition zones [1, 5]","Diameters of the inhibition zones [1, 6]","Diameters of the inhibition zones [1, 7]",solubility in water ([2]; water),resorption [1],other results
"CCn1cc(C(=O)O)c(=O)c2cc3c(cc21)OCO3 [oxolinic acid, 1-ethyl--3-carboxy-4-oxo-6,7-methylenedioxy-1,4-dihydroquinoline]",15000,14500,4600,4200,4800,17.7 mm and 18.2 mm and 17.5 mm,15.3 mm and 17.4 mm and 8.8 mm,14.0 mm and 16.0 mm and 14.3 mm,16.8 mm and 14.7 mm and 14.1 mm,"6,5 /ug/ml",,"zone of inhibition at 1 µg/mL (Proteus Mirabilis; Proteus mirabilis, concentration 1 /ug/ml, read-out: Diameter of the inhibition zone): 8.6 mm; zone of inhibition at 2 µg/mL (Proteus Mirabilis; Proteus mirabilis, concentration 2 /ug/ml, read-out: Diameter of the inhibition zone): 11.6 mm; zone of inhibition at 4 µg/mL (Proteus Mirabilis; Proteus mirabilis, concentration 4 /ug/ml, read-out: Diameter of the inhibition zone): 14.4 mm; zone of inhibition at 5 µg/mL (Proteus Mirabilis; Proteus mirabilis, concentration 5 /ug/ml, read-out: Diameter of the inhibition zone): 15 mm; zone of inhibition at 10 µg/mL (Proteus Mirabilis; Proteus mirabilis, concentration 10 /ug/ml, read-out: Diameter of the inhibition zone): 17.9 mm; zone of inhibition at 50 µg/mL (Proteus Mirabilis; Proteus mirabilis, concentration 50 /ug/ml, read-out: Diameter of the inhibition zone): 20.7 mm; zone of inhibition at 100 µg/mL (Proteus Mirabilis; Proteus mirabilis, concentration 100 /ug/ml, read-out: Diameter of the inhibition zone): 26.5 mm; Diameter of the inhibition zone (Proteus Mirabilis; concentration 1 /ug/ml): 8.5 mm; Diameter of the inhibition zone (Proteus Mirabilis; concentration 2 /ug/ml): 11.9 mm; Diameter of the inhibition zone (Proteus Mirabilis; concentration 4 /ug/ml): 14.1 mm; Diameter of the inhibition zone (Proteus Mirabilis; concentration 5 /ug/ml): 14.7 mm; Diameter of the inhibition zone (Proteus Mirabilis; concentration 10 /ug/ml): 17.2 mm; Diameter of the inhibition zone (Proteus Mirabilis; concentration 50 /ug/ml): 19.4 mm; Diameter of the inhibition zone (Proteus Mirabilis; concentration 100 /ug/ml): 24.7 mm"
"CCn1cc(C(=O)O)c(=O)c2cc3c(cc21)OCO3 [choline oxolinate, 2-hydroxyethyl-trimethylammonium salt of 1-ethyl-3-carboxy-4-oxo-6,7-methylenedioxy-1,4-dihydroquinoline]",56000,26000,15000,6600,3100,19.3 mm and 19.1 mm and 20.9 mm,18.2 mm and 17.8 mm,13.9 mm and 15.3 mm and 11.4 mm,11.7 mm and 14.3 mm,higher than 1 g/ml,substantially better resorbed,"bioavailability ([1]; mice, compared with administration of oxolinic acid): sigrificantly higher; Tmax ([1]; mouse, serum, mice, 70 mg/kg choline oxolinate, first sampling, read-out: time at which a high level of serum concentration was reached): ≤ 30 min; Diameters of the inhibition zones ([1]; serum sampled at 0.5 hour, equimolar doses: 50 mg/kg oxolinic acid or 70 mg/kg choline oxolinate, 50 ul serum on Proteus Mirabilis plate): 22.6 mm and 21.9 mm; solubility (in words) ([2]; acetone): insoluble; solubility (in words) ([2]; chloroform): dissolves well; solubility (in words) ([2]; ethanol): dissolves well; solubility (in words) ([2]; ether): insoluble; solubility (in words) ([2]; water): dissolves well"
CCn1cc(C(=O)[O-])c(=O)c2cc3c(cc21)OCO3.[Na+] [sodium oxolinate],,,,,,,,,,,weaker than that of choline oxolinate,
